From patent US20110098352A1, “N,N-DISUBSTITUTED AMINOALKYLBIPHENYL ANTAGONISTS OF PROSTAGLANDIN D2 RECEPTORS” (AMIRA PHARMACEUTICALS, INC., priority 2008, published 2011) come the findings set out here.

Assay [1] concerns the target T1, recombinant human CRTH2 receptor (Homo sapiens, UniProt Q9Y5Y4).
T1 construct: expressed in transfected cells
T1 sequence (Q9Y5Y4 1-395): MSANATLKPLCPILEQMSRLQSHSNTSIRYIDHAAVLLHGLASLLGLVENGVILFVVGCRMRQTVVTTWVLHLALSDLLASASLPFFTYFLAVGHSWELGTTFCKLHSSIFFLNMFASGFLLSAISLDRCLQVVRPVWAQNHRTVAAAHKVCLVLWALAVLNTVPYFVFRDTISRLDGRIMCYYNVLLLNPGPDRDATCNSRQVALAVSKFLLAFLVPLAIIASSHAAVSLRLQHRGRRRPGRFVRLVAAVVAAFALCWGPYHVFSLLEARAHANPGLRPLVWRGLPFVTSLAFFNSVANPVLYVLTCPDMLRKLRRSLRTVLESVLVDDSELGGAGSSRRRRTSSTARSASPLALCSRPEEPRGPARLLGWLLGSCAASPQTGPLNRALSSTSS
The assay can be described thus: GTPγS binding assay. In kind it is biochemical. The note with it: +HSA; CHO cell membranes, 80 nM PGD2; read-out: hDP2 GTPγS μM (+HSA). Here is the method: The ability of a compound to inhibit binding of GTP to DP2 is assessed via a membrane GTPγS assay. CHO cells stably expressing the recombinant human CRTH2 receptor are resuspended in 10 mM Hepes, 7.4 containing 1 mM DTT, lysed and centrifuged at 75,000×g to pellet the membranes. The membranes are resuspended in 10 mM Hepes, 7.4 containing 1 mM DTT and 10% glycerol. […] The reactions are terminated by rapid filtration through Whatman GF/B glass fibre filter plates. The filter plates are washed 3 times with 1 ml cold Assay Buffer and dried. Scintillant is then added to the plates and the radioactivity retained on the filters is determined on a Packard TopCount (Perkin Elmer). Specific binding is determined as total radioactive binding minus non-specific binding in the absence of the ligand (80 nM PGD2). IC50s were determined using Graphpad prism analysis of drug titration curves.
Background: GTPγS resists hydrolysis and so accumulates on activated G proteins.

The target in another assay is T2, human DP1 receptor (Homo sapiens, UniProt Q13258).
T2 construct: tissue Biological Specialty Corporation; host or cells: human platelets, membranes
T2 sequence (Q13258 1-359): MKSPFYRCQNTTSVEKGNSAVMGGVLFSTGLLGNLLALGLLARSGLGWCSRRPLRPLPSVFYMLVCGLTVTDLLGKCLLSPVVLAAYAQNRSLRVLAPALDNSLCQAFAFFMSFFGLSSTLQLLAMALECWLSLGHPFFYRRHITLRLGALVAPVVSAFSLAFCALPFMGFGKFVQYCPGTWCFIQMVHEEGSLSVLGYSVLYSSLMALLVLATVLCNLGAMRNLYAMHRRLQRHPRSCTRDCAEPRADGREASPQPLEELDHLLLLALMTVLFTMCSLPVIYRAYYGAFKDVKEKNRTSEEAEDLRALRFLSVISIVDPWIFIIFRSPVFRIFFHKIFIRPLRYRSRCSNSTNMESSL
Kind of assay: DP1 radioligand membrane binding assay using [3H]BWA868C. The note with it: [3H]BWA868C binding, human platelet membranes; read-out: hDP1. Here is the method:
The ability of a compound to bind to the human DP1 receptor was evaluated via a radioligand membrane binding assay using the DP1 selective synthetic ligand [^3H]BWA868C. Packed human platelets (Biological Specialty Corporation), were resuspended in 6 volumes of Hepes/HBSS buffer (10 mM Hepes, 1 mM DTT in Hanks Balanced Salt Solution (HBSS)), lysed and centrifuged at 75,000×g to pellet the membranes. Membranes were resuspended in Hepes/HBSS buffer to approximately 12 mg protein/ml. Membranes (20 μg protein/well) are incubated in 96-well plates with 2 nM [^3H]BWA868C and test compound in Assay Buffer (50 mM Hepes, 10 mM MnCl2, 1 mM EDTA, plus or minus 0.2% human serum albumin, pH 7.4) for 60 minutes at room temperature. The reactions are terminated by rapid filtration through Whatman GF/C glass fibre filter plates. The filter plates were pre-soaked in […] polethylenimine for 30 minutes at room temperature then washed in Wash Buffer (50 mM Hepes, 0.5 M NaCl pH 7.4) prior to harvesting. After harvesting, the filter plates are washed 3 times with 1 ml cold Wash Buffer then dried. Scintillant is then added to the plates and the radioactivity retained on the filters is determined on a Packard TopCount (Perkin Elmer). Specific binding is determined as total radioactive binding minus non-specific binding in the presence of 10 μM BWA868C. IC50s were determined using GraphPad prism analysis of drug titration curves.

The next assay has as its target T3, human DP2 receptor (Homo sapiens, UniProt Q9Y5Y4).
T3 construct: expressed in transfected cells
T3 sequence (Q9Y5Y4 1-395): T1 sequence (Q9Y5Y4 1-395)
Kind of assay: DP2/CRTH2 radioligand binding assay using [3H]PGD2. The note with it: [3H]PGD2 binding, membranes of HEK293 cells expressing recombinant human DP2; read-out: hDP2. Here is the method: The ability of a compound to bind to the human DP2 receptor is assessed via a radioligand binding assay using [^3H]PGD2. HEK293 cells stably expressing recombinant human DP2 are resuspended in 10 mM Hepes, 7.4 containing 1 mM DTT, lysed and centrifuged at 75,000×g to pellet the membranes. The membranes are resuspended in 10 mM Hepes, 7.4 containing 1 mM DTT and 10% glycerol to approximately 5 mg protein/ml. Membranes (2-10 μg protein/well) are incubated in 96-well plates with 1 nM [^3H]PGD2 and test compound in Assay Buffer (50 mM Hepes, 10 mM MnCl2, 1 mM EDTA, plus or minus 0.2% human serum albumin, pH 7.4) for 60 minutes at room temperature. The reactions are terminated by rapid filtration through Whatman GF/C glass fibre filter plates. The filter plates were pre-soaked in 0.33% polythylenimine for 30 minutes at room temperature then washed in Wash Buffer (50 mM Hepes, 0.5 M NaCl pH 7.4) prior to harvesting. After harvesting, the filter plates are washed 3 times with 1 ml cold Wash Buffer then dried. Scintillant is then added to the plates and the radioactivity retained on the filters is determined on a Packard TopCount (Perkin Elmer). Specific binding is determined as total radioactive binding minus non-specific binding in the presence of 10 μM PGD2. IC50s were determined using GraphPad prism analysis of drug titration curves.

With `CCN(Cc1cc(C(F)(F)F)ccc1-c1cc(CC(=O)O)ccc1F)C(C)=O` [Compound 1-10, {2′-[(Acetyl-ethyl-amino)-methyl]-6-fluoro-4′-trifluoromethyl-biphenyl-3-yl}-acetic acid], the IC50 in assay [1] is less than 0.3 µM; at human DP1 receptor it was greater than 1000 nM; at human DP2 receptor it was less than 300 nM.
For `CC(=O)N(Cc1cc(C(F)(F)F)ccc1-c1cc(CC(=O)O)ccc1F)CC(F)(F)F` [Compound 1-11, (2′-{[Acetyl-(2,2,2-trifluoro-ethyl)-amino]-methyl}-6-fluoro-4′-trifluoromethyl-biphenyl-3-yl)-acetic acid], in that order: less than 0.3 µM, greater than 1000 nM and less than 300 nM.
The like results for `COc1ccc(CC(=O)O)cc1-c1ccc(C(F)(F)F)cc1CN(C(C)=O)C1CC1` [Compound 1-12, {2′-[(Acetyl-cyclopropyl-amino)-methyl]-6-methoxy-4′-trifluoromethyl-biphenyl-3-yl}-acetic acid] were, in that order, less than 0.3 µM, greater than 1000 nM and less than 300 nM.
For `CCN(Cc1cc(C(F)(F)F)ccc1-c1cc(CC(=O)O)ccc1OC)C(=O)OC` [Compound 1-23, {2′-[(Ethyl-methoxycarbonyl-amino)-methyl]-6-methoxy-4′-trifluoromethyl-biphenyl-3-yl}-acetic acid], in that order: less than 0.3 µM, greater than 1000 nM and less than 300 nM.
As for `COc1ccc(CC(=O)O)cc1-c1ccc(C(F)(F)F)cc1CN(C)C(=O)OCc1ccccc1` [Compound 1-27, {2′-[(Benzyloxycarbonyl-methyl-amino)-methyl]-6-methoxy-4′-trifluoromethyl-biphenyl-3-yl)-acetic acid], the values for the IC50 (in assay [1]; at human DP1 receptor; at human DP2 receptor) were less than 0.3 µM, greater than 1000 nM and less than 300 nM, respectively.
As for `CN(Cc1cc(C(F)(F)F)ccc1-c1cc(CC(=O)O)ccc1F)C(=O)OCc1ccccc1` [Compound 1-29, {2′-[(Benzyloxycarbonyl-methyl-amino)-methyl]-6-fluoro-4′-trifluoromethyl-biphenyl-3-yl}-acetic acid], the IC50 is less than 0.3 µM in assay [1], greater than 1000 nM on human DP1 receptor and less than 300 nM at human DP2 receptor.
For the molecule `COc1ccc(CC(=O)O)cc1-c1ccc(C(F)(F)F)cc1CN(C(C)=O)C1CCC1` [Compound 1-30, {2′-[(Acetyl-cyclobutyl-amino)-methyl]-6-methoxy-4′-trifluoromethyl-biphenyl-3-yl}-acetic acid], the results for the IC50 (in assay [1]; at human DP1 receptor; at human DP2 receptor) were less than 0.3 µM, greater than 1000 nM and less than 300 nM, respectively.
The like results for `COc1ccc(CC(=O)O)cc1-c1ccc(C(F)(F)F)cc1CN(C(C)=O)C1CCCC1` [Compound 1-31, {2′-[(Acetyl-cyclopentyl-amino)-methyl]-6-methoxy-4′-trifluoromethyl-biphenyl-3-yl}-acetic acid] were, in that order, less than 0.3 µM, greater than 1000 nM and less than 300 nM.
For `CCN(Cc1cc(C(F)(F)F)ccc1-c1cc(CC(=O)O)ccc1OC)C(=O)C(F)(F)F` [Compound 1-32, (2′-{[Ethyl-(2,2,2-trifluoro-acetyl)-amino]-methyl}-6-methoxy-4′-trifluoromethyl-biphenyl-3-yl)-acetic acid], in that order: less than 0.3 µM, greater than 1000 nM and less than 300 nM.
For `COc1ccc(CC(=O)O)cc1-c1ccc(C(F)(F)F)cc1CN(C(=O)OCc1ccccc1)C1CCCC1` [Compound 1-35, {2′-[(Benzyloxycarbonyl-cyclopentyl-amino)-methyl]-6-methoxy-4′-trifluoromethyl-biphenyl-3-yl}-acetic acid], in that order: less than 0.3 µM, 300 to 1000 nM and less than 300 nM.
`CCN(Cc1cc(C(F)(F)F)ccc1-c1cc(CC(=O)O)ccc1OC)C(=O)OCc1ccccc1Cl` [Compound 1-39, (2′-{[(2-Chloro-benzyloxycarbonyl)-ethyl-amino]-methyl}-6-methoxy-4′-trifluoromethyl-biphenyl-3-yl)-acetic acid]: the figures for the IC50 (in assay [1]; at human DP1 receptor; at human DP2 receptor) were less than 0.3 µM, greater than 1000 nM and less than 300 nM, respectively.
